# Measured values published in patent US9018383B2, “Acylamino-substituted cyclic carboxylic acid derivatives and their use as pharmaceuticals” (Sanofi, priority 2009, dated 2015).
# Target: human Edg-2 receptor (Homo sapiens, UniProt Q92633)
# Assay: Determination of Edg-2 receptor inhibition by FLIPR measurements (LPA-mediated calcium liberation)
# Type: cell-based
# Conditions: CHO cells overexpressing human Edg-2 receptor, LPA 100 nM, fluo-4 calcium fluorescence; read-out: Inhibitory concentrations IC50 for inhibition of the Edg-2 receptor
# In short: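 IC50 was derived from % inhibition of the baseline-corrected peak fluo-4 signal relative to DMSO, measured in triplicate. Compound was added ~5 min before 100 nM LPA (18:1) to human Edg-2–expressing CHO cells in pH 7.5 HBSS buffer with probenecid and HEPES, and fluorescence was monitored ~3 min.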
# human Edg-2 receptor, sequence (Q92633 whole entry): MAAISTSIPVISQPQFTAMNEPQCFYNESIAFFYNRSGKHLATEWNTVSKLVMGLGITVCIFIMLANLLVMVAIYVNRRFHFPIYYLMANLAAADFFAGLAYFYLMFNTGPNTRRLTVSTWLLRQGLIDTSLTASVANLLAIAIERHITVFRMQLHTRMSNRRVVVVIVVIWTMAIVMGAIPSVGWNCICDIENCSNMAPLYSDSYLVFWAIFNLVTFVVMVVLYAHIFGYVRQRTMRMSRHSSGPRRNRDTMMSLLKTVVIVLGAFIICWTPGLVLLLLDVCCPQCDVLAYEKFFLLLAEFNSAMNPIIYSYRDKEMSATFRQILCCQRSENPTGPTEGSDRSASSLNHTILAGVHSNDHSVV
row,IC50 [µM],SMILES
1,1 to 30,"COc1ncc(C(=O)NC2(C(=O)O)CCCCCC2)cc1OCCc1cc(C)ccc1C [Example 87, 1-({5-[2-(2,5-Dimethyl-phenyl)-ethoxy]-6-methoxy-pyridine-3-carbonyl}-amino)-cycloheptanecarboxylic acid]"
2,< 0.1,"COc1ncc(C(=O)N[C@]2(C(=O)O)CC[C@@H](C)CC2)cc1OCCc1cccc(CCO)c1 [Example 90, trans-1-[(5-{2-[3-(2-Hydroxy-ethyl)-phenyl]-ethoxy}-6-methoxy-pyridine-3-carbonyl)-amino]-4-methyl-cyclohexanecarboxylic acid]"
3,< 0.1,"COc1ncc(C(=O)N[C@]2(C(=O)O)CC[C@H](C)CC2)cc1OCCc1cccc(CCO)c1 [Example 91, cis-1-[(5-{2-[3-(2-Hydroxy-ethyl)-phenyl]-ethoxy}-6-methoxy-pyridine-3-carbonyl)-amino]-4-methyl-cyclohexanecarboxylic acid]"
4,1 to 30,"COc1ncc(C(=O)NC2(C(=O)O)CCCCCC2)cc1-c1cccc(C#N)c1 [Example 92, 1-{[5-(3-Cyano-phenyl)-6-methoxy-pyridine-3-carbonyl]-amino}-cycloheptanecarboxylic acid]"
5,1 to 30,COc1ncc(C(=O)NC2(C(=O)O)CCCCCC2)cc1-c1cccc(NS(=O)(=O)N(C)C)c1 [Example 93]
6,0.1 to 1,"COc1ncc(C(=O)NC2(C(=O)O)CCCCCC2)cc1-c1cccc(Cl)c1 [Example 94, 1-{[5-(3-chloro-phenyl)-6-methoxy-pyridyl-3-carbonyl]-amino}-cycloheptanecarboxylic acid]"
7,< 0.1,COc1ncc(C(=O)NC2(C(=O)O)CCCCCC2)cc1-c1cccc(OC(F)(F)F)c1 [Example 96]
8,< 0.1,COc1ncc(C(=O)NC2(C(=O)O)CCCCCC2)cc1-c1cc(Cl)cc(C(F)(F)F)c1 [Example 99]
9,< 0.1,COc1ncc(C(=O)NC2(C(=O)O)CCCCCC2)cc1-c1cccc(C(F)(F)F)c1 [Example 100]
10,0.1 to 1,COc1ccc(C(=O)NC2(C(=O)O)CCCCCC2)cc1-c1cccc(C(C)C)c1 [Example 105]
11,1 to 30,COc1ccc(C(=O)NC2(C(=O)O)CCCCCC2)cc1-c1cccc(C#N)c1 [Example 106]

# The next lines start with the compound.
row,SMILES,IC50 [µM]
1,"COc1ncc(C(=O)N[C@]2(C(=O)O)CC[C@@H](C)CC2)cc1OCCc1cccc(Cl)c1 [Example 85, trans-1-({5-[2-(3-chloro-phenyl)-ethoxy]-6-methoxy-pyridine-3-carbonyl}-amino)-4-methyl-cyclohexanecarboxylic acid]",< 0.1
2,"COc1ncc(C(=O)N[C@]2(C(=O)O)CC[C@H](C)CC2)cc1OCCc1cc(C)ccc1C [Example 86, cis-1-({5-[2-(2,5-Dimethyl-phenyl)-ethoxy]-6-methoxy-pyridine-3-carbonyl}-amino)-4-methyl-cyclohexanecarboxylic acid]",1 to 30
3,"COc1ncc(C(=O)NC2(C(=O)O)CCCCCC2)cc1OCCc1ccccc1 [Example 88, 1-{[5-(2-Phenyl-ethoxy)-6-methoxy-pyridine-3-carbonyl]-amino}-cycloheptanecarboxylic acid]",< 0.1
4,"COc1ncc(C(=O)N[C@]2(C(=O)O)CC[C@@H](C(C)(C)C)CC2)cc1OCCc1cccc(C)c1 [Example 89, trans-4-tert-Butyl-1-{[6-methoxy-5-(2-m-tolyl-ethoxy)-pyridine-3-carbonyl]-amino}-cyclohexanecarboxylic acid]",1 to 30
5,COc1ncc(C(=O)NC2(C(=O)O)CCCCCC2)cc1-c1cccc(C(C)C)c1 [Example 95],0.1 to 1
6,COc1ncc(C(=O)NC2(C(=O)O)CCCCCC2)cc1-c1cccc(Cl)c1Cl [Example 97],< 0.1
7,COc1ncc(C(=O)NC2(C(=O)O)CCCCCC2)cc1-c1cc(F)c(F)c(F)c1 [Example 98],< 0.1
8,COc1ccc(C(=O)NC2(C(=O)O)CCCCCC2)cc1-c1cccc(NS(=O)(=O)N(C)C)c1 [Example 103],0.1 to 1
